Measured values taken from patent US20100015249A1, “Antitumor agent containing 6'-amidino-2'-naphthyl 4-guanidinobenzoate or salt thereof” (priority 2005, published 2010).

Tests used:
IκBα = assay: Western blot of IκBα / phosphorylated IκBα in cytoplasm extracts; format: cell-based, human
Method: The human pancreas cancer cell line MDAPanc-28 was treated with various concentrations of FUT to examine the effect on IκBα. Cytoplasm extracts were extracted from cells treated with various concentrations of FUT according to the method generally known and Western blot was performed to detect each protein. More specifically, each lane was loaded with 50 μg of protein to perform electrophoresis. The gel was then transferred to a PVDF membrane (Osmonics). After blocking with PBS containing 5% nonfat milk for 2 hours at room temperature, primary antibody (anti-IκBα antibody) diluted with PBS containing 0.1% nonfat milk was added for reaction at 4° C. overnight. After rinsing with PBS, the PVDF membrane was then reacted with secondary antibody solution diluted with PBS containing 0.1% nonfat milk for 2 hours at room temperature. Proteins were detected by using Lumi-Light Western Blotting Substrate.

TNFRI = TNFRI expression by Northern blot and Western blot; format: cell-based, human
Method: A cDNA probe for hybridization was constructed by the following method. After FUT treatment, RNA was extracted from the human pancreas cancer cell line […]-28 by using TRIZOL Reagent (Life Technologies, Inc.) 15 μg of RNA was subjected to electrophoresis on a 1% denatured formaldehyde agarose gel and transferred to a nylon membrane. RT-PCR was performed in order to construct a cDNA probe to be used for the detection of TNFRI mRNA. With this RT-PCR, primers represented by SEQ ID Nos: 5 and 6 were used. The obtained cDNA was inserted into the pCR2.1-TOPO vector. […] The obtained cDNA probe was labeled with α-^32P dCTP by using the random labeling kit (Roche) and used for hybridization. The expression of TNFRI mRNA was confirmed by Northern blot method with the above mentioned probe according to the method generally known. […] Also, TNFRI expression on the cell surface was detected by Western blot method. More specifically, the experiment was performed by the method similar to the method described in Example 2. Mouse monoclonal anti-TNFR1 (H-5; Santa Cruz Biotechnology) was used for detection.

caspase 8 = assay: Western blot of caspase 8 activation; format: cell-based, human
Method: The present inventors examined whether apoptosis signaling cascade is triggered with the elevation of TNFRI expression induced by FUT treatment, using caspase 8 as an indicator. Cytoplasmic fraction was prepared from the human pancreas cancer cell line MDAPanc-28 treated with various concentrations of FUT for 24 hours. Western blot was performed and subjected to the detection with anti-caspase 8 antibody (Santa Cruz Biotechnology) (FIG. 6-a). Western blot was performed to examine temporal changes in the expression of caspase 8, p-FADD, Bid and jBid under a constant concentration of FUT (80 μg/ml) at short intervals from 0 to 24 hours of treatment (FIGS. 6-b, 6-c and 6-d). Anti-FADD antibody was obtained from Santa Cruz Biotechnology and anti-Bid antibody was obtained from BD Pharmingen.
After the following treatment on the human pancreas cancer cell line MDAPanc-28, plasmatic compartment was prepared and Western blot was performed to examine the expression of phosphorylated FADD, caspase 8, NF-κB and IκBα. […] The same was true for IκBα expression (FIG. 7-c).

NF-κB = assay: Gel shift assay of gemcitabine-induced NF-κB activation; format: cell-based, human; conditions: MDAPanc-28, pretreatment 3 hours then gemcitabine 3 hours
Method: At the same time, the present inventors also made a comparison with the other NF-κB inhibitors PS1145 and PS341. […] Subsequently, a gel shift assay was performed to examine the effect on NF-κB activation.

[1] = test system: human pancreas cancer cell line MDAPanc-28; assay: Apoptosis ratio by flow cytometry (propidium iodide, FACScan); format: cell-based; conditions: MDAPanc-28, pretreatment with the agent 3 hours then gemcitabine 48 hours, compared with gemcitabine alone
Method: The present inventors next examined the effect of these agents on apoptosis induction in the human pancreas cancer cell line MDAPanc-28. […] Flow cytometry was used to confirm the occurrence of apoptosis. Cells were collected after treatments with the agents and fixed in 70% ethanol at −20° C. for 24 hours. After rinsing with PBS, cells were suspended in PBS containing 50 μg/ml of propium iodide, 0.1% Triton X-100, 0.1% sodium citrate and 1 μg/ml of DNase free RNase. The samples were incubated at room temperature for 30 minutes and the amount of DNA was measured by using FACScan.

MMP-2 = assay: Western blot of MMP-2 expression; format: cell-based, human; conditions: MDAPanc-28 cytoplasmic fraction, 0 or 80 μg/ml FUT
Method: Cytoplasmic fraction was prepared from the human pancreas cancer cell line […]-28 treated with either 0 μg/ml or 80 μg/ml of FUT. Western blot was performed for the obtained cytoplasmic proteins to examine MMP-2 and MMP-9 expression. More specifically, the experiment was performed by the method described in Example 2. Rabbit polyclonal anti-MMP-2 antibody, goat polyclonal anti-MMP-9 antibody and mouse anti-B-actin antibody (Santa Cruz Biotechnology, Inc.) were used for detection.

[2] = test system: human pancreas cancer cell line MDAPanc-28; assay: Matrigel infiltration assay; format: cell-based; conditions: MDAPanc-28 pretreated with 80 μg/ml FUT for 24 hours, 22-hour incubation in matrigel-coated chamber
Method: A matrigel infiltration assay was performed to examine an inhibitory effect on infiltration in the human pancreas cancer cell line MDAPanc-28 by FUT treatment. Cells treated with 80 μg/ml of FUT for 24 hours and untreated cells were respectively inoculated to a matrigel-coated chamber at a concentration of 20000 cells per well for a 22-hour incubation at 37° C. either in the presence or absence of 80 μg/ml of FUT. The numbers of infiltrated cells were then counted under the microscope after Wright-Giemsa staining according to the method generally known.

N=C(N)c1ccc2cc(OC(=O)c3ccc(N=C(N)N)cc3)ccc2c1 [FUT, 6-amidino-2-naphthyl p-guanidinobenzoate dimethanesulfonate]
level of phosphorylated IκBα in the cytoplasm (IκBα; MDAPanc-28, over time after adding FUT): declines overtime | level of IκBα in the cytoplasm over time (IκBα; MDAPanc-28, time after addition of FUT up to 48 hours): increases along the progression of NF-κB inactivation up to 24 hours after addition of FUT and then is restored to a steady-state level after 48 hours | level of IκBα in the cytoplasm (IκBα; MDAPanc-28, various concentrations of FUT): increased by FUT in a concentration-dependent manner | level of TNFRI mRNA expression (TNFRI; MDAPanc-28, Northern blot): increased in a FUT concentration-dependent manner | TNFRI expression on the cell surface (TNFRI; MDAPanc-28, Western blot): increased TNFRI expression on the cell surface | caspase 8 activation with TNF-α stimulation (caspase 8; MDAPanc-28, FUT 80 μg/ml pretreatment then TNF-α 5 ng/ml 24 hours, compared to FUT alone): enhanced FADD phosphorylation and caspase 8 activation | caspase 8 activation over time (caspase 8; MDAPanc-28, FUT 80 μg/ml, 0 to 24 hours): later on promoted caspase 8 activation | caspase 8 activation (caspase 8; MDAPanc-28, various concentrations of FUT for 24 hours): activated by FUT in a concentration-dependent manner | caspase 8 activation in TNFRI-downregulated cells (caspase 8; cells with TNFRI expression downregulated using siRNA, after FUT treatment): nor caspase 8 activation | effect on gemcitabine-induced activation of NF-κB (NF-κB): had an inhibitory effect on gemcitabine-induced activation of NF-κB | inhibitory effect on gemcitabine-induced NF-κB activation compared among FUT, PS1145 and PS341 (NF-κB): most significant | apoptosis induction in combination with gemcitabine [1]: further enhanced the effect on apoptosis induction | MMP-2 expression (MMP-2): inhibited by FUT in a concentration-dependent manner | infiltration (number of infiltrated cells) [2]: significant inhibitory effect on infiltration
